This experiment has as its target BRAF^V600E protein (Homo sapiens, UniProt P15056, V600E). In words: HiBiT cellular BRAF V600E degradation assay. In kind it is cell-based. The following applies: 24 h incubation; for DC50: A375.10 cells (HiBiT tag knocked in at N-terminal of BRAF V600E), concentration at which 50% of total cellular BRAF V600E is degraded; for Emax: read-out: HiBit 24 h Emax.
The mark [1] stands for this setting: A375.10 cells, Emax = amount of residual protein remaining in the cell after compound treatment.

The structures appear in SMILES notation.

For orientation: DC50 means the midpoint of the concentration-degradation curve. High values mean degradation only at high concentration, low ones degradation at low concentration. A word on the Emax: it is the greatest response seen or fitted, relative to the assay's reference.

Chain of BRAF^V600E protein (P15056 whole entry V600E): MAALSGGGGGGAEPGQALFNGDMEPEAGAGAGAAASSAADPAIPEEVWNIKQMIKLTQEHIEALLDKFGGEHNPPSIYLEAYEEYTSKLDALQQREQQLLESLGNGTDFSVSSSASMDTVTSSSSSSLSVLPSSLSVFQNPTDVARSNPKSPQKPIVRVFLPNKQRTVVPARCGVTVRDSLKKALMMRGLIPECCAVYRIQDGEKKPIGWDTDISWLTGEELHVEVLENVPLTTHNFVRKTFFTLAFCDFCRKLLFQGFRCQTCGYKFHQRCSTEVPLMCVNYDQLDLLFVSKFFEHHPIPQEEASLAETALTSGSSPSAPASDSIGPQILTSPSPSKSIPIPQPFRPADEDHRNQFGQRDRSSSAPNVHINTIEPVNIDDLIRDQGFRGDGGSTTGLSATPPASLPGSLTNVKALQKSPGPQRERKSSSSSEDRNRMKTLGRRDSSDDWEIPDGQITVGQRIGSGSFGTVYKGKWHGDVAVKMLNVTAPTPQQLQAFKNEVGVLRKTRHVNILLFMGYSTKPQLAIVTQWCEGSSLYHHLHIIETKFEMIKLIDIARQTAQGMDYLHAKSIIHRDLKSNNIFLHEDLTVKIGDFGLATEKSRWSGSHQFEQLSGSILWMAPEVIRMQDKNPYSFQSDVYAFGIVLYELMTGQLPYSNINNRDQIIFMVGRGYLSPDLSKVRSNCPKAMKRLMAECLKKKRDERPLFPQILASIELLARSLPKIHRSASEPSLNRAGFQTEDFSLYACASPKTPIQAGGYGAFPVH

Compound `CCN(C)S(=O)(=O)Nc1cccc(C(=O)c2c[nH]c3ncc(-c4cnc(N5CCN(C(=O)CN6CCC(c7ccc(NC8CCC(=O)NC8=O)cc7F)CC6)CC5)nc4)cc23)c1F` (stereo not shown) [Example 97, 5-[2-[4-[2-[4-[4-[(2,6-dioxo-3-piperidyl)amino]-2-fluoro-phenyl]-1-piperidyl]acetyl]piperazin-1-yl]pyrimidin-5-yl]-3-[3-[[ethyl(methyl)sulfamoyl]amino]-2-fluoro-benzoyl]-1H-pyrrolo[2,3-b]pyridine] had a DC50 of 6.62 nM. Under setting [1], the maximum response (Emax) was 7.94%.

The compound `CCN(C)S(=O)(=O)Nc1ccc(F)c(C(=O)c2c[nH]c3ncc(-c4cnc(N5CCN(C(=O)CC6(OP(=O)(O)O)CCN(c7ccc(C8CCC(=O)NC8=O)cc7F)CC6)CC5)nc4)cc23)c1F` (stereo not shown) [Example 158e, [1-[4-(2,6-dioxo-3-piperidyl)-2-fluoro-phenyl]-4-[2-[4-[5-[3-[3-[[ethyl(methyl)sulfamoyl]amino]-2,6-difluoro-benzoyl]-1H-pyrrolo[2,3-b]pyridin-5-yl]pyrimidin-2-yl]piperazin-1-yl]-2-oxo-ethyl]-4-piperidyl]dihydrogen phosphate] came in with a DC50 of 10.8 nM. Besides, under setting [1], the Emax came to 11.7%.

Regarding `CCN(C)S(=O)(=O)Nc1ccc(F)c(C(=O)c2c[nH]c3ncc(-c4cnc(N5CCN(C(=O)CN6CCN(c7ccc(NC8CCC(=O)NC8=O)cc7)CC6)CC5)nc4)cc23)c1F` (stereo not shown) [Example 19, 5-[2-[4-[2-[4-[4-[(2,6-dioxo-3-piperidyl)amino]phenyl]piperazin-1-yl]acetyl]piperazin-1-yl]pyrimidin-5-yl]-3-[3-[[ethyl(methyl)sulfamoyl]amino]-2,6-difluoro-benzoyl]-1H-pyrrolo[2,3-b]pyridine], the DC50 was determined as 8.57 nM. Moreover, the “HiBit 24 h Emax” value under setting [1] was 11.26%.

In turn, `CCN(C)S(=O)(=O)Nc1ccc(F)c(C(=O)c2c[nH]c3ncc(-c4cnc(N5CCC(NC(=O)CN6CCC(c7ccc(OC8CCC(=O)NC8=O)cn7)CC6)CC5)nc4)cc23)c1F` (stereo not shown) [Example A60, 2-[4-[5-(2,6-Dioxopiperidin-3-yl)oxypyridin-2-yl]piperidin-1-yl]-N-[1-[5-[3-[3-[[ethyl(methyl)sulfamoyl]amino]-2,6-difluorobenzoyl]-1H-pyrrolo[2,3-b]pyridin-5-yl]pyrimidin-2-yl]piperidin-4-yl]acetamide;formic acid] registered a DC50 of 275 nM. For the same compound, the Emax under setting [1] was 24%.

`CCN(C)S(=O)(=O)Nc1cccc(C(=O)c2c[nH]c3ncc(-c4ccc(N5CCN(C(=O)CC6(O)CCN(c7ccc(NC8CCC(=O)NC8=O)cn7)CC6)CC5)nc4)cc23)c1F` (stereo not shown) [Example 113, 5-[6-[4-[2-[1-[5-[(2,6-dioxo-3-piperidyl)amino]-2-pyridyl]-4-hydroxy-4-piperidyl]acetyl]piperazin-1-yl]-3-pyridyl]-3-[3-[[ethyl(methyl)sulfamoyl]amino]-2-fluoro-benzoyl]-1H-pyrrolo[2,3-b]pyridine] came in with a DC50 of 26.3 nM. The Emax under setting [1] is 27.7%.

Take `CC(C)S(=O)(=O)Nc1ccc(F)c(C(=O)c2c[nH]c3ncc(-c4cnc(N5CCN(C(=O)CN6CCC(c7ccc(C8CCC(=O)NC8=O)cc7)CC6)CC5)nc4)cc23)c1F` (stereo not shown) [Example 8, N-[3-[5-[2-[4-[2-[4-[4-(2,6-dioxo-3-piperidyl)phenyl]-1-piperidyl]acetyl]piperazin-1-yl]pyrimidin-5-yl]-1H-pyrrolo[2,3-b]pyridine-3-carbonyl]-2,4-difluoro-phenyl]propane-2-sulfonamide]: the DC50 came out at 4.67 nM. Besides, the Emax under setting [1] worked out at 2.37%.

`CCN(C)S(=O)(=O)Nc1cccc(C(=O)c2c[nH]c3ncc(-c4cnc(N5CCN(C(=O)CC6(O)CCN(c7ccc(N8CCC(=O)NC8=O)cc7F)CC6)CC5)nc4)cc23)c1F` [Example 165, 5-[2-[4-[2-[1-[4-(2,4-dioxohexahydropyrimidin-1-yl)-2-fluoro-phenyl]-4-hydroxy-4-piperidyl]acetyl]piperazin-1-yl]pyrimidin-5-yl]-3-[3-[[ethyl(methyl)sulfamoyl]amino]-2-fluoro-benzoyl]-1H-pyrrolo[2,3-b]pyridine] displayed a DC50 of 6.27 nM. Besides, the Emax under setting [1] was found to be 10.8%.

On to `CCN(C)S(=O)(=O)Nc1ccc(F)c(C(=O)c2c[nH]c3ncc(-c4ccc(N5CCN(CCCC(=O)N6CCC(c7ccc(OC8CCC(=O)NC8=O)cc7)CC6)CC5)nc4)cc23)c1F` (stereo not shown) [Example A5, 5-[6-[4-[4-[4-[4-(2,6-Dioxopiperidin-3-yl)oxyphenyl]piperidin-1-yl]-4-oxobutyl]piperazin-1-yl]pyridin-3-yl]-3-[3-[[ethyl(methyl)sulfamoyl]amino]-2,6-difluorobenzoyl]-1H-pyrrolo[2,3-b]pyridine], for which it took 104 nM to reach half-maximal degradation (DC50). For the same compound, the Emax under setting [1] came to 34%.

As to `CCN(C)S(=O)(=O)Nc1ccc(F)c(C(=O)c2c[nH]c3ncc(-c4cnc(N5CCN(C(=O)CC6(O)CCN(c7ccc8c(N9CCC(=O)NC9=O)nn(C)c8c7)CC6)CC5)nc4)cc23)c1F` [Example 163, 3-(2,4-dioxohexahydropyrimidin-1-yl)-6-[4-[2-[4-[5-[3-[3-[[ethyl(methyl)sulfamoyl]amino]-2,6-difluoro-benzoyl]-1H-pyrrolo[2,3-b]pyridin-5-yl]pyrimidin-2-yl]piperazin-1-yl]-2-oxo-ethyl]-4-hydroxy-1-piperidyl]-1-methyl-indazole], it took 4.52 nM to reach half-maximal degradation (DC50). Besides, under setting [1], the Emax worked out at 9.67%.

`CCN(C)S(=O)(=O)Nc1cccc(C(=O)c2c[nH]c3ncc(-c4ccc(N5CCN(C(=O)CN6CCC(c7ccc(NC8CCC(=O)NC8=O)cc7)C(F)(F)C6)CC5)nc4)cc23)c1F` (stereo not shown) [Example 110, 5-[6-[4-[2-[4-[4-[(2,6-dioxo-3-piperidyl)amino]phenyl]-3,3-difluoro-1-piperidyl]acetyl]piperazin-1-yl]-3-pyridyl]-3-[3-[[ethyl(methyl)sulfamoyl]amino]-2-fluoro-benzoyl]-1H-pyrrolo[2,3-b]pyridine]: the DC50 stood at 4.47 nM. Further, under setting [1], the Emax came out at 7.75%.

In turn, `CCN(C)S(=O)(=O)Nc1ccc(F)c(C(=O)c2c[nH]c3ncc(-c4ccc(N5CCN(C(=O)CC6(O)CCN(c7ccc(NC8CCC(=O)NC8=O)cn7)CC6)CC5)nc4)cc23)c1F` (stereo not shown) [Example 78, 5-[6-[4-[2-[1-[5-[(2,6-dioxo-3-piperidyl)amino]-2-pyridyl]-4-hydroxy-4-piperidyl]acetyl]piperazin-1-yl]-3-pyridyl]-3-[3-[[ethyl(methyl)sulfamoyl]amino]-2,6-difluoro-benzoyl]-1H-pyrrolo[2,3-b]pyridine] displayed a DC50 of 9.89 nM. For the same compound, the Emax under setting [1] was 23.3%.

Compound `CCN(C)S(=O)(=O)Nc1cccc(C(=O)c2c[nH]c3ncc(-c4cnc(N5CCN(C(=O)CC6(O)CCN(c7ccc(C8CCC(=O)NC8=O)cc7F)CC6)CC5)nc4)cc23)c1F` (stereo not shown) [Example 162, 5-[2-[4-[2-[1-[4-(2,6-dioxo-3-piperidyl)-2-fluoro-phenyl]-4-hydroxy-4-piperidyl]acetyl]piperazin-1-yl]pyrimidin-5-yl]-3-[3-[[ethyl(methyl)sulfamoyl]amino]-2-fluoro-benzoyl]-1H-pyrrolo[2,3-b]pyridine] came in with a DC50 of 2.09 nM. Besides, the Emax under setting [1] turned out to be 7.81%.

The compound `CCN(C)S(=O)(=O)Nc1ccc(F)c(C(=O)c2c[nH]c3ncc(-c4cnc(N5CCN(C(=O)CC6(O)CCN(c7ccc(NC8CCC(=O)NC8=O)cc7F)CC6)CC5)c(C#N)c4)cc23)c1F` (stereo not shown) [Example 186, 5-[5-cyano-6-[4-[2-[1-[4-[(2,6-dioxo-3-piperidyl)amino]-2-fluoro-phenyl]-4-hydroxy-4-piperidyl]acetyl]piperazin-1-yl]-3-pyridyl]-3-[3-[[ethyl(methyl)sulfamoyl]amino]-2,6-difluoro-benzoyl]-1H-pyrrolo[2,3-b]pyridine] yielded a DC50 of 5.45 nM. In addition, under setting [1], the maximal effect (Emax) came out at 8.35%.

For the compound `CCN(C)S(=O)(=O)Nc1ccc(F)c(C(=O)c2c[nH]c3ncc(-c4ccc(CN5CCN(C(=O)CN6CCC(c7ccc(NC8CCC(=O)NC8=O)cc7)CC6)CC5)cc4)cc23)c1F` (stereo not shown) [Example A23, 5-[4-[[4-[2-[4-[4-[(2,6-Dioxopiperidin-3-yl)amino]phenyl]piperidin-1-yl]acetyl]piperazin-1-yl]methyl]phenyl]-3-[3-[[ethyl(methyl)sulfamoyl]amino]-2,6-difluorobenzoyl]-1H-pyrrolo[2,3-b]pyridine], the DC50 worked out at 19 nM. The Emax under setting [1] stood at 13%.

In turn, `CCN(C)S(=O)(=O)Nc1ccc(F)c(C(=O)c2c[nH]c3ncc(C#CC4CCN(C(=O)CN5CCC(c6ccc(NC7CCC(=O)NC7=O)cc6F)CC5)CC4)cc23)c1F` (stereo not shown) [Example 124, 5-[2-[1-[2-[4-[4-[(2,6-dioxo-3-piperidyl)amino]-2-fluoro-phenyl]-1-piperidyl]acetyl]-4-piperidyl]ethynyl]-3-[3-[[ethyl(methyl)sulfamoyl]amino]-2,6-difluoro-benzoyl]-1H-pyrrolo[2,3-b]pyridine] had a DC50 of 22.1 nM. Moreover, the Emax under setting [1] was determined as 13%.

Take `CCN(C)S(=O)(=O)Nc1ccc(F)c(C(=O)c2c[nH]c3ncc(-c4ccc(N5CCN(C(=O)CCCN6CCC(c7ccc(OC8CCC(=O)NC8=O)cc7)CC6)CC5)nc4)cc23)c1F` (stereo not shown) [Example A2, 5-[6-[4-[4-[4-[4-(2,6-Dioxopiperidin-3-yl)oxyphenyl]piperidin-1-yl]butanoyl]piperazin-1-yl]pyridin-3-yl]-3-[3-[[ethyl(methyl)sulfamoyl]amino]-2,6-difluorobenzoyl]-1H-pyrrolo[2,3-b]pyridine]: the DC50 worked out at 66 nM. For the same compound, under setting [1], the Emax came to 22%.

Regarding `CCN(C)S(=O)(=O)Nc1ccc(F)c(C(=O)c2c[nH]c3ncc(-c4ccc(N5CCC(NCC(=O)N6CCC(c7ccc(NC8CCC(=O)NC8=O)cc7)CC6)CC5)nc4)cc23)c1F` (stereo not shown) [Example A110, 5-[6-[4-[[2-[4-[4-[(2,6-Dioxopiperidin-3-yl)amino]phenyl]piperidin-1-yl]-2-oxoethyl]amino]piperidin-1-yl]pyridin-3-yl]-3-[3-[[ethyl(methyl)sulfamoyl]amino]-2,6-difluorobenzoyl]-1H-pyrrolo[2,3-b]pyridine;formic acid], it took 13 nM to reach half-maximal degradation (DC50). Also, under setting [1], the Emax amounted to 13%.

The record behind these values is US12559492B2, “BRAF degraders” (C4 Therapeutics, Inc., priority 2020, dated 2026).
